PubChem BioAssay (NCI)
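These data come from cells grown in 96-well plates and exposed to compound for 48 hours at five concentrations. The concentration for 50% growth inhibition is given as GI50. At the TGI there is no net growth.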

Tests used:
Test in all cases: NCI-60 cell line screen, 48 h
786-0 renal = tested on: 786-0 renal
HL-60(TB) leukemia = tested on: HL-60(TB) leukemia
UO-31 renal = tested on: UO-31 renal
HT29 colon = tested on: HT29 colon
KM12 colon = tested on: KM12 colon
SK-MEL-5 melanoma = tested on: SK-MEL-5 melanoma
HCT-116 colon = tested on: HCT-116 colon
UACC-62 melanoma = tested on: UACC-62 melanoma
UACC-257 melanoma = tested on: UACC-257 melanoma
M14 melanoma = tested on: M14 melanoma
OVCAR-3 ovarian = tested on: OVCAR-3 ovarian
OVCAR-4 ovarian = tested on: OVCAR-4 ovarian
A498 renal = tested on: A498 renal
HCC-2998 colon = tested on: HCC-2998 colon
NCI-H522 lung = tested on: NCI-H522 lung
LOX IMVI melanoma = tested on: LOX IMVI melanoma
RXF 393 renal = tested on: RXF 393 renal
HOP-62 NSCLC = tested on: HOP-62 NSCLC
A549 NSCLC = tested on: A549 NSCLC
SR leukemia = tested on: SR leukemia
BT-549 breast = tested on: BT-549 breast
K-562 leukemia = tested on: K-562 leukemia
NCI/ADR-RES ovarian = tested on: NCI/ADR-RES ovarian
OVCAR-8 ovarian = tested on: OVCAR-8 ovarian
COLO 205 colon = tested on: COLO 205 colon
NCI-H23 lung = tested on: NCI-H23 lung
SK-OV-3 ovarian = tested on: SK-OV-3 ovarian
DU-145 prostate = tested on: DU-145 prostate
ACHN renal = tested on: ACHN renal
MDA-MB-231 breast = tested on: MDA-MB-231 breast
NCI-H226 lung = tested on: NCI-H226 lung
MOLT-4 leukemia = tested on: MOLT-4 leukemia
MDA-MB-435 = tested on: MDA-MB-435
NCI-H460 lung = tested on: NCI-H460 lung
U251 CNS = tested on: U251 CNS
MCF7 breast = tested on: MCF7 breast
HCT-15 colon = tested on: HCT-15 colon
TK-10 renal = tested on: TK-10 renal
CAKI-1 renal = tested on: CAKI-1 renal
MALME-3M melanoma = tested on: MALME-3M melanoma
SF-268 CNS = tested on: SF-268 CNS
SF-295 CNS = tested on: SF-295 CNS
SNB-75 CNS = tested on: SNB-75 CNS
EKVX NSCLC = tested on: EKVX NSCLC
SK-MEL-28 melanoma = tested on: SK-MEL-28 melanoma
SK-MEL-2 melanoma = tested on: SK-MEL-2 melanoma
SF-539 CNS = tested on: SF-539 CNS
CCRF-CEM leukemia = tested on: CCRF-CEM leukemia
SNB-19 CNS = tested on: SNB-19 CNS
SN12C renal = tested on: SN12C renal
HOP-92 NSCLC = tested on: HOP-92 NSCLC

CC1(C)C(=O)/C(=C\c2ccccn2)C[C@]2(C)[C@H]3CC[C@@H]4[C@@H](C(=O)/C=C/c5ccccn5)CC[C@@]4(C)[C@]3(C)CC[C@@H]12
GI50 (786-0 renal): 1200 nM
TGI (786-0 renal): 2770 nM
GI50 (HL-60(TB) leukemia): 486 nM
TGI (HL-60(TB) leukemia): 3950 nM
GI50 (UO-31 renal): 787 nM
TGI (UO-31 renal): 2100 nM
GI50 (HT29 colon): 1050 nM
TGI (HT29 colon): 3460 nM
GI50 (KM12 colon): 1670 nM
TGI (KM12 colon): 3210 nM
GI50 (SK-MEL-5 melanoma): 1510 nM
TGI (SK-MEL-5 melanoma): 2890 nM
GI50 (HCT-116 colon): 263 nM
TGI (HCT-116 colon): 795 nM
GI50 (UACC-62 melanoma): 1190 nM
TGI (UACC-62 melanoma): 2580 nM
GI50 (UACC-257 melanoma): 1640 nM
TGI (UACC-257 melanoma): 5470 nM
GI50 (M14 melanoma): 907 nM
TGI (M14 melanoma): 3140 nM
GI50 (OVCAR-3 ovarian): 538 nM
TGI (OVCAR-3 ovarian): 1850 nM
GI50 (OVCAR-4 ovarian): 2410 nM
TGI (OVCAR-4 ovarian): > 100000 nM
GI50 (A498 renal): 1670 nM
TGI (A498 renal): 3110 nM
GI50 (HCC-2998 colon): 1800 nM
TGI (HCC-2998 colon): 3490 nM
GI50 (NCI-H522 lung): 2010 nM
TGI (NCI-H522 lung): 4520 nM
GI50 (LOX IMVI melanoma): 232 nM
TGI (LOX IMVI melanoma): 565 nM
GI50 (RXF 393 renal): 859 nM
TGI (RXF 393 renal): 2260 nM
GI50 (HOP-62 NSCLC): 2140 nM
TGI (HOP-62 NSCLC): 5820 nM
GI50 (A549 NSCLC): 2020 nM
TGI (A549 NSCLC): > 28200 nM
GI50 (SR leukemia): 342 nM
TGI (SR leukemia): 2110 nM
GI50 (BT-549 breast): 1380 nM
TGI (BT-549 breast): 4260 nM
GI50 (K-562 leukemia): 347 nM
TGI (K-562 leukemia): > 100000 nM
GI50 (NCI/ADR-RES ovarian): 1470 nM
TGI (NCI/ADR-RES ovarian): 5930 nM
GI50 (OVCAR-8 ovarian): 493 nM
TGI (OVCAR-8 ovarian): > 100000 nM
GI50 (COLO 205 colon): 1760 nM
TGI (COLO 205 colon): 4380 nM
GI50 (NCI-H23 lung): 2000 nM
TGI (NCI-H23 lung): 4630 nM
GI50 (SK-OV-3 ovarian): 3890 nM
TGI (SK-OV-3 ovarian): > 100000 nM
GI50 (DU-145 prostate): 1760 nM
TGI (DU-145 prostate): 3230 nM
GI50 (ACHN renal): 479 nM
TGI (ACHN renal): 1690 nM
GI50 (MDA-MB-231 breast): 532 nM
TGI (MDA-MB-231 breast): 2530 nM
GI50 (NCI-H226 lung): 1800 nM
TGI (NCI-H226 lung): 4850 nM
GI50 (MOLT-4 leukemia): 537 nM
TGI (MOLT-4 leukemia): > 100000 nM
GI50 (MDA-MB-435): 296 nM
TGI (MDA-MB-435): 885 nM
GI50 (NCI-H460 lung): 1970 nM
TGI (NCI-H460 lung): 4200 nM
GI50 (U251 CNS): 749 nM
TGI (U251 CNS): 2080 nM
GI50 (MCF7 breast): 405 nM
TGI (MCF7 breast): 3890 nM

CCCCCCNC(=O)Nc1ccc2cc3ccc(NC(=O)NCCCCCC)cc3nc2c1
GI50 (786-0 renal): 2520 nM
TGI (786-0 renal): > 26600 nM
GI50 (UO-31 renal): > 100000 nM
TGI (UO-31 renal): > 100000 nM
GI50 (HT29 colon): 2240 nM
TGI (HT29 colon): > 100000 nM
GI50 (HCT-116 colon): 358 nM
TGI (HCT-116 colon): 1250 nM
GI50 (UACC-62 melanoma): 1210 nM
TGI (UACC-62 melanoma): 2530 nM
GI50 (HCT-15 colon): > 100000 nM
TGI (HCT-15 colon): > 100000 nM
GI50 (TK-10 renal): 23500 nM
TGI (TK-10 renal): > 100000 nM
GI50 (CAKI-1 renal): > 26500 nM
TGI (CAKI-1 renal): > 100000 nM
GI50 (A498 renal): 1880 nM
TGI (A498 renal): > 28700 nM
GI50 (LOX IMVI melanoma): 268 nM
TGI (LOX IMVI melanoma): 737 nM
GI50 (RXF 393 renal): 1400 nM
TGI (RXF 393 renal): 5510 nM
GI50 (HOP-62 NSCLC): 1810 nM
TGI (HOP-62 NSCLC): 4880 nM
GI50 (MALME-3M melanoma): 1630 nM
TGI (MALME-3M melanoma): 3120 nM
GI50 (SF-268 CNS): 1200 nM
TGI (SF-268 CNS): 2960 nM
GI50 (SR leukemia): 284 nM
TGI (SR leukemia): 1270 nM
GI50 (BT-549 breast): 4090 nM
TGI (BT-549 breast): > 100000 nM
GI50 (SF-295 CNS): 2320 nM
TGI (SF-295 CNS): 6040 nM
GI50 (NCI/ADR-RES ovarian): 83700 nM
TGI (NCI/ADR-RES ovarian): > 100000 nM
GI50 (OVCAR-8 ovarian): 614 nM
TGI (OVCAR-8 ovarian): 2880 nM
GI50 (SNB-75 CNS): 1450 nM
TGI (SNB-75 CNS): 3160 nM
GI50 (DU-145 prostate): 2000 nM
TGI (DU-145 prostate): > 100000 nM
GI50 (ACHN renal): 43500 nM
TGI (ACHN renal): > 100000 nM
GI50 (EKVX NSCLC): 5790 nM
TGI (EKVX NSCLC): > 100000 nM
GI50 (SK-MEL-28 melanoma): 1720 nM
TGI (SK-MEL-28 melanoma): 3140 nM
GI50 (SK-MEL-2 melanoma): 1900 nM
TGI (SK-MEL-2 melanoma): 4010 nM
GI50 (SF-539 CNS): 1580 nM
TGI (SF-539 CNS): 3000 nM
GI50 (CCRF-CEM leukemia): 258 nM
TGI (CCRF-CEM leukemia): 714 nM
GI50 (MDA-MB-231 breast): 1540 nM
TGI (MDA-MB-231 breast): 3110 nM
GI50 (NCI-H226 lung): 4950 nM
TGI (NCI-H226 lung): > 100000 nM
GI50 (SNB-19 CNS): 1730 nM
TGI (SNB-19 CNS): 3360 nM
GI50 (MDA-MB-435): 406 nM
TGI (MDA-MB-435): 1510 nM
GI50 (SN12C renal): 1080 nM
TGI (SN12C renal): 2510 nM
GI50 (U251 CNS): 336 nM
TGI (U251 CNS): 1290 nM
GI50 (HOP-92 NSCLC): 1670 nM
TGI (HOP-92 NSCLC): 4070 nM
GI50 (MCF7 breast): 396 nM
TGI (MCF7 breast): 1570 nM
